pKi: −log10 of the molar value.
Each molecule was assayed against T1, Gamma-aminobutyric acid receptor subunit alpha-5 (Homo sapiens, UniProt P31644) (assay: Radioligand Binding Assay: Radioligand binding assays were carried out in a volume of […] (96-well plates) which contained […] of cell memebranes, [3H]flumazenil at a concentration of 1 nM for α1, α2, α3 subunits and 0.5 nM for α5 subunits and the test compound in the range of 10-10−3x10−6 M. Nonspecific binding was defined by 10−5 M diazepam and typically represented less than 5% of the total binding. Assays were incubated to equilibrium for 1 hour at 4 C. and harvested onto GF/C uni-filters (Packard) by filtration using a Packard harvester and washing with ice-cold wash buffer (50 mM Tris; pH 7.5). After drying, filter-retained radioactivity was detected by liquid scintillation counting.).
T1 sequence (P31644 whole entry): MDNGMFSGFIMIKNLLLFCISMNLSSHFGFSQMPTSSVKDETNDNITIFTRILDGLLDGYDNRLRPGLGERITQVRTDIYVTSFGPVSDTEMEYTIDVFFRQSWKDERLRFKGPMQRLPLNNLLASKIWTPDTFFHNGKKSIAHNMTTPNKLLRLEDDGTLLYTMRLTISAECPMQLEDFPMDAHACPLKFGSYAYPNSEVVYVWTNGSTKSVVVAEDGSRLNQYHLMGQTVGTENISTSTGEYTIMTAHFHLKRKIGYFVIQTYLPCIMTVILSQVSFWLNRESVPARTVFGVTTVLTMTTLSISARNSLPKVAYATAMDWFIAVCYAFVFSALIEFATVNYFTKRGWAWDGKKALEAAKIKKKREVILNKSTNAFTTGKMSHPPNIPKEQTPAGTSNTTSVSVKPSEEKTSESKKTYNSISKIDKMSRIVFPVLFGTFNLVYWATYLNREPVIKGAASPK

| Compound | pKi |
| --- | --- |
| Cc1onc(-c2ccc(Cl)cc2)c1COc1ccc(C(=O)N2CCOCC2)cn1 | 8.27 |
| Cc1onc(-c2ccccn2)c1COc1ccc(C(=O)N2CCOCC2)cn1 | 7.84 |
| Cc1onc(-c2ccc(Cl)cn2)c1COc1ccc(C(=O)N2CCSCC2)cn1 | 9.40 |

Continued, values first:

| pKi | Compound |
| --- | --- |
| 7.82 | Cc1onc(-c2ccccc2)c1COc1ccc(C(=O)N2CC3(COC3)C2)cn1 |
| 8.89 | Cc1onc(-c2ccccc2)c1COc1ccc(C(=O)NC(C)C)cn1 |
| 7.52 | Cc1onc(-c2ccccc2)c1COc1ccc(C(=O)N2CCn3cnnc3C2)cn1 |

Source: ChEMBL document CHEMBL3638723, “Isoxazolo-pyridine derivatives” (2014)
